Assays:
[1] = tested on: bacterial (S. aureus) biofilm and fungal biofilm (C. albicans); assay: Biofilm inhibition assay, bacterial and fungal taken together; format: cell-based; details: symbol marks the assay
Protocol: (§1) Two types of biofilm assays were performed: an inhibition assay and a disruption assay. The inhibition assay assesses the compound's ability to prevent biofilm development, while the disruption assay assesses the compound's ability to break up an existing mature biofilm.
(§2) All bacterial biofilm solutions were prepared in Tryptic Soy Broth (TSB), supplemented with 1% glucose (henceforth referred to as TSB-G). All subsequent procedures were performed in a manner that maintained sterility. A solution of each amino acid or an amino acid derivative to be tested was prepared in weight to volume concentrations ranging from 0.1-5.0%. Amino acids and amino acid derivatives were also tested in combinations. Compound solutions were homogenized with gentle agitation in the dark (4° C., 24 hours) before use.
(§3) 32 Amino acids and 2 amino acid derivatives of the amino acid serine that occur freely in human blood were tested. […] 31 of the 32 amino acids that were tested were the L-Isomers. Glycine has no stereoisomers. The 2 amino acid derivatives, ethanolamine and phosphoethanolamine were also tested. All biofilm assays were performed using 384-well non-tissue culture-treated polystyrene plates. The fungal species tested are as follows: Candida albicans, Candida guilliermondii, Candida parapsilosis, Candida glabrata, Candida tropicalis and Candida dubliniensis. The bacterial species tested are as follows: Staphylococci (standard wild type and methicillin-resistant strain USA300), Escherichia coli, Pseudomonas aeruginosa and Staphylococcus epidermidis.
Fungal strains were streaked on Yeast Peptone Dextrose (YPD) agar plates and incubated at 30° C. for 48 hours. A single colony from each strain to be tested was inoculated into YPD broth and grown for 12 hours at 30° C., shaking at 225 rpm. […] The cells were allowed to adhere to the plate for 90 minutes at 37° C. with shaking (350 rpm). […] The plate was further incubated for 24 hours at 37° C. with shaking (350 rpm). Media was carefully aspirated and the biofilm was measured by optical density at 600 nm. […] The cells were allowed to adhere to the plate for 90 minutes at 37° C. with shaking (350 rpm). […] The plate was further incubated for 24 hours at 37° C. with shaking (350 rpm). […] The plate was further incubated for 24 hours at 37° C. with shaking (350 rpm). Media was carefully aspirated, and the biofilm was measured by optical density at 600 nm.
Bacterial strains were streaked on Blood Agar plates (5% sheep blood in Tryptic Soy Broth) and incubated at 37° C. for 24 hours. A single colony from each strain to be tested was inoculated in a TSB broth and grown for 12 hours, at 37° C. with shaking (225 rpm). For the bacterial biofilm inhibition assays, 1 μL of saturated overnight cell culture was added to either 80 μL of TSB-G, or TSB-G supplemented with the amino acid compound solution to be tested, in a 384-well plate. The cells were allowed to adhere to the plate for 60 minutes at 37° C. without shaking. The media was carefully aspirated and 80 μL of TSB-G, or TSB-G supplemented with the amino acid compound solution was added to the plate. The plate was further incubated for 24 hours at 37° C. without shaking. Media was carefully aspirated and the biofilm was measured by optical density at 600 nm. Eight or twelve replicates were performed for each tested condition and the reported values are normalized to the control (TSB-G media only). For the bacterial biofilm disruption assays, 80 µL of TSB-G was added to the plate, along with 1 μL of overnight cell culture. The cells were allowed to adhere to the plate for 60 minutes at 37° C. with no shaking. The media was carefully aspirated and 80 μL of TSB-G was added to the plate. The plate was further incubated for 24 hours at 37° C. with no shaking. Media was carefully aspirated from the mature biofilm and 80 μL of TSB-G, or TSB-G supplemented with the amino acid to be tested, was gently added to the plate.

[2] = tested on: bacterial (S. aureus) biofilm; assay: Bacterial biofilm inhibition assay; format: cell-based, Staphylococcus aureus
Protocol: as §1, §2, §3
(§4) Bacterial strains were streaked on Blood Agar plates (5% sheep blood in Tryptic Soy Broth) and incubated at 37° C. for 24 hours. A single colony from each strain to be tested was inoculated in a TSB broth and grown for 12 hours, at 37° C. with shaking (225 rpm). For the bacterial biofilm inhibition assays, 1 μL of saturated overnight cell culture was added to either 80 μL of TSB-G, or TSB-G supplemented with the amino acid compound solution to be tested, in a 384-well plate. The cells were allowed to adhere to the plate for 60 minutes at 37° C. without shaking. The media was carefully aspirated and 80 μL of TSB-G, or TSB-G supplemented with the amino acid compound solution was added to the plate. The plate was further incubated for 24 hours at 37° C. without shaking. Media was carefully aspirated and the biofilm was measured by optical density at 600 nm. Eight or twelve replicates were performed for each tested condition and the reported values are normalized to the control (TSB-G media only). For the bacterial biofilm disruption assays, 80 µL of TSB-G was added to the plate, along with 1 μL of overnight cell culture. The cells were allowed to adhere to the plate for 60 minutes at 37° C. with no shaking. The media was carefully aspirated and 80 μL of TSB-G was added to the plate. The plate was further incubated for 24 hours at 37° C. with no shaking. Media was carefully aspirated from the mature biofilm and 80 μL of TSB-G, or TSB-G supplemented with the amino acid to be tested, was gently added to the plate. The plate was further incubated for 24 hours at 37° C. without shaking. Media was aspirated and the biofilm was measured by optical density at 600 nm. Twelve replicates were performed for each tested condition and the reported values are normalized to the control (TSB-G media only).

bacterial biofilm = assay: In vitro testing on bacterial biofilm (inhibition and/or disruption); format: cell-based; details: in vitro testing
Protocol: as §1, §2, §3, §4

[3] = Table D, Neutral = no effect on the biofilm
[4] = Table E, in the absence of an infusion of glycerol
[5] = Table F, in the presence of a sufficient concentration of glycerol

Structure (SMILES): Cn1cnc(C[C@H](N)C(=O)O)c1 [1-Methylhistidine, 1-methyl-L-histidine]
- Neutral (square: Inhibition Biofilm Assay) [1, 3]: ▪ (Single square [ie. ▪] signifies little effect on the Inhibition Biofilm Assay (from about 10 to less than 30%))
- Neutral (square: Inhibition Biofilm Assay) [1, 4]: ▪ (Single square [ie. ▪] signifies little effect on the Inhibition Biofilm Assay (from about 10 to less than 30%))
- Neutral (square: Inhibition Biofilm Assay) [1, 5]: ▪ (Single square [ie. ▪] signifies little effect on the Inhibition Biofilm Assay (from about 10 to less than 30%))

Structure (SMILES): NCCCC[C@H](N)C(=O)O [Lysine, L-lysine]
- Promote B Biofilm (squares: Inhibition Biofilm Assay) ([2]; Table D, 0.1 to 5.0%): ▪ (Single square [ie. ▪] signifies little effect on the Inhibition Biofilm Assay (from about 10 to less than 30%))
- Promote B Biofilm (squares: Inhibition Biofilm Assay) [2, 4]: ▪ (Single square [ie. ▪] signifies little effect on the Inhibition Biofilm Assay (from about 10 to less than 30%))
- effect on bacterial biofilm (in words) (bacterial biofilm): promoted bacterial biofilm formation

Structure (SMILES): C[C@@H](O)[C@H](N)C(=O)O [Threnonine, L-threonine]
- effect on bacterial biofilm (in words) (bacterial biofilm): promoted bacterial biofilm formation

Structure (SMILES): N[C@@H](Cc1ccccc1)C(=O)O [Phenylalanine, L-phenylalanine]
- Promote B Biofilm (squares: Inhibition Biofilm Assay) ([2]; Table D, 0.1 to 5.0%): ▪ (Single square [ie. ▪] signifies little effect on the Inhibition Biofilm Assay (from about 10 to less than 30%))
- Promote B Biofilm (squares: Inhibition Biofilm Assay) [2, 4]: ▪ (Single square [ie. ▪] signifies little effect on the Inhibition Biofilm Assay (from about 10 to less than 30%))
- effect on bacterial biofilm (in words) (bacterial biofilm): promoted bacterial biofilm formation

Structure (SMILES): NCCC[C@H](N)C(=O)O [Ornithine, L-ornithine]
- Neutral (square: Inhibition Biofilm Assay) [1, 3]: ▪ (Single square [ie. ▪] signifies little effect on the Inhibition Biofilm Assay (from about 10 to less than 30%))
- Neutral (square: Inhibition Biofilm Assay) [1, 4]: ▪ (Single square [ie. ▪] signifies little effect on the Inhibition Biofilm Assay (from about 10 to less than 30%))
- Neutral (square: Inhibition Biofilm Assay) [1, 5]: ▪ (Single square [ie. ▪] signifies little effect on the Inhibition Biofilm Assay (from about 10 to less than 30%))
- effect on bacterial biofilm (in words) (bacterial biofilm): promoted bacterial biofilm formation

Structure (SMILES): CC[C@H](C)[C@H](N)C(=O)O [Isoleucine, L-isoleucine]
- Promote B Biofilm (squares: Inhibition Biofilm Assay) ([2]; Table D, 0.1 to 5.0%): ▪ (Single square [ie. ▪] signifies little effect on the Inhibition Biofilm Assay (from about 10 to less than 30%))
- Promote B Biofilm (squares: Inhibition Biofilm Assay) [2, 4]: ▪ (Single square [ie. ▪] signifies little effect on the Inhibition Biofilm Assay (from about 10 to less than 30%))
- effect on bacterial biofilm (in words) (bacterial biofilm): promoted bacterial biofilm formation

Structure (SMILES): CCC(N)C(=O)O (stereo not shown) [2 Aminobutyric Acid, 2-aminobutyric acid]
- Neutral (square: Inhibition Biofilm Assay) [1, 3]: ▪ (Single square [ie. ▪] signifies little effect on the Inhibition Biofilm Assay (from about 10 to less than 30%))
- Neutral (square: Inhibition Biofilm Assay) [1, 4]: ▪ (Single square [ie. ▪] signifies little effect on the Inhibition Biofilm Assay (from about 10 to less than 30%))
- Neutral (square: Inhibition Biofilm Assay) [1, 5]: ▪ (Single square [ie. ▪] signifies little effect on the Inhibition Biofilm Assay (from about 10 to less than 30%))

Structure (SMILES): NC(=O)NCCC[C@H](N)C(=O)O [Citrulline, L-citrulline]
- Promote B Biofilm (squares: Inhibition Biofilm Assay) ([2]; Table D, 0.1 to 5.0%): ▪ (Single square [ie. ▪] signifies little effect on the Inhibition Biofilm Assay (from about 10 to less than 30%))
- Promote B Biofilm (squares: Inhibition Biofilm Assay) [2, 4]: ▪ (Single square [ie. ▪] signifies little effect on the Inhibition Biofilm Assay (from about 10 to less than 30%))
- effect on bacterial biofilm (in words) (bacterial biofilm): promoted bacterial biofilm formation

Structure (SMILES): NCCS(=O)(=O)O [Taurine, L-taurine]
- effect on bacterial biofilm (in words) (bacterial biofilm): promoted bacterial biofilm formation

Structure (SMILES): NCC(=O)O [Glycine, L-glycine]
- Promote B Biofilm (squares: Inhibition Biofilm Assay) ([2]; Table D, 0.1 to 5.0%): ▪ (Single square [ie. ▪] signifies little effect on the Inhibition Biofilm Assay (from about 10 to less than 30%))
- Promote B Biofilm (squares: Inhibition Biofilm Assay) [2, 4]: ▪ (Single square [ie. ▪] signifies little effect on the Inhibition Biofilm Assay (from about 10 to less than 30%))
- effect on bacterial biofilm (in words) (bacterial biofilm): promoted bacterial biofilm formation

Structure (SMILES): CC(C)C[C@H](N)C(=O)O [Leucine, L-leucine]
- Promote B Biofilm (squares: Inhibition Biofilm Assay) ([2]; Table D, 0.1 to 5.0%): ▪ (Single square [ie. ▪] signifies little effect on the Inhibition Biofilm Assay (from about 10 to less than 30%))
- Promote B Biofilm (squares: Inhibition Biofilm Assay) [2, 4]: ▪ (Single square [ie. ▪] signifies little effect on the Inhibition Biofilm Assay (from about 10 to less than 30%))
- effect on bacterial biofilm (in words) (bacterial biofilm): promoted bacterial biofilm formation

Structure (SMILES): O=C(O)[C@@H]1CCCN1 [Proline, L-proline]
- Neutral (square: Inhibition Biofilm Assay) [1, 3]: ▪ (Single square [ie. ▪] signifies little effect on the Inhibition Biofilm Assay (from about 10 to less than 30%))
- Neutral (square: Inhibition Biofilm Assay) [1, 4]: ▪ (Single square [ie. ▪] signifies little effect on the Inhibition Biofilm Assay (from about 10 to less than 30%))
- Neutral (square: Inhibition Biofilm Assay) [1, 5]: ▪ (Single square [ie. ▪] signifies little effect on the Inhibition Biofilm Assay (from about 10 to less than 30%))
- effect on bacterial biofilm (in words) (bacterial biofilm): promoted bacterial biofilm formation

Structure (SMILES): N=C(N)NCCC[C@H](N)C(=O)O [Arginine, L-arginine]
- Promote B Biofilm (squares: Inhibition Biofilm Assay) ([2]; Table D, 0.1 to 5.0%): ▪ (Single square [ie. ▪] signifies little effect on the Inhibition Biofilm Assay (from about 10 to less than 30%))
- Promote B Biofilm (squares: Inhibition Biofilm Assay) [2, 4]: ▪ (Single square [ie. ▪] signifies little effect on the Inhibition Biofilm Assay (from about 10 to less than 30%))
- effect on bacterial biofilm (in words) (bacterial biofilm): promoted bacterial biofilm formation

Structure (SMILES): CSCC[C@H](N)C(=O)O [Methionine, L-methionine]
- Promote B Biofilm (squares: Inhibition Biofilm Assay) ([2]; Table D, 0.1 to 5.0%): ▪ (Single square [ie. ▪] signifies little effect on the Inhibition Biofilm Assay (from about 10 to less than 30%))
- Promote B Biofilm (squares: Inhibition Biofilm Assay) [2, 4]: ▪ (Single square [ie. ▪] signifies little effect on the Inhibition Biofilm Assay (from about 10 to less than 30%))
- effect on bacterial biofilm (in words) (bacterial biofilm): promoted bacterial biofilm formation

Structure (SMILES): NCCC(=O)O [Beta-Alanine, Beta-alanine]
- Reduce or Inhibit B Biofilm (squares: Inhibition Biofilm Assay) ([2]; Table D, 0.1 to 5.0%): ▪ (Single square [ie. ▪] signifies little effect on the Inhibition Biofilm Assay (from about 10 to less than 30%))
- Reduce or Inhibit B Biofilm (squares: Inhibition Biofilm Assay) [2, 5]: ▪ (Single square [ie. ▪] signifies little effect on the Inhibition Biofilm Assay (from about 10 to less than 30%))
- effect on bacterial biofilm (in words) (bacterial biofilm): antibacterial biofilm effect

From patent publication US12109176B1, “Effect of glycerol on biofilm forming bacteria and fungi that changes the microbes sensitivity to pro and anti-biofilm non-toxic, non-bonded plasma amino acids and amino acid derivatives” (priority 2023, dated 2024)
